In one data set the target is T1, human GPR84 receptor (Homo sapiens, UniProt Q9NQS5).
T1 construct: expressed in transfected cells; host or cells: CHO
Nature of the data set: GPR84 antagonistic effect determination (cAMP assay, forskolin and 6-OAU stimulation). Format: cell-based. Particulars: CHO stably transfected cell line highly expressing human GPR84; 2.5 μM Forskolin & 200 nM 6-OAU; cAMP readout; read-out: Antagonistic effect against GPR84, IC50. On the technique in general: cAMP levels reflect the balance of adenylyl cyclase and phosphodiesterase activity.

Data set [1] in a line: Pharmacokinetic experiment in mice. The data set is classed as in vivo. Particulars: mouse; male ICR mice, oral gavage 3 mg/kg, plasma. Here is the method:
For the pharmacokinetic experiment in mice, male ICR mice, 20 to 25 g, were used and fasted overnight. Three mice were taken and orally administered by gavage (3 mg/kg): blood was collected before the administration, and at 15 min, 30 min, 1 hour, 2 hours, 4 hours, 8 hours, and 24 hours after the administration. The blood samples were centrifuged at 6800 g for 6 min at 2 to 8° C., and plasma was collected and stored at −80° C. 20 μL of plasma at each time point was taken, and added with 200 μL of methanol containing 100 ng/mL internal standard. The mixture was vortexed, mixed evenly, and then centrifuged at 18000 g for 7 min at 2 to 8° ° C. 200 μL of the mixture was transferred to a 96-well injection plate for LC-MS/MS quantitative analysis. The main pharmacokinetic parameters were analyzed using WinNonlin 7.0 software with non-compartmental model.

T1 sequence (Q9NQS5 whole entry): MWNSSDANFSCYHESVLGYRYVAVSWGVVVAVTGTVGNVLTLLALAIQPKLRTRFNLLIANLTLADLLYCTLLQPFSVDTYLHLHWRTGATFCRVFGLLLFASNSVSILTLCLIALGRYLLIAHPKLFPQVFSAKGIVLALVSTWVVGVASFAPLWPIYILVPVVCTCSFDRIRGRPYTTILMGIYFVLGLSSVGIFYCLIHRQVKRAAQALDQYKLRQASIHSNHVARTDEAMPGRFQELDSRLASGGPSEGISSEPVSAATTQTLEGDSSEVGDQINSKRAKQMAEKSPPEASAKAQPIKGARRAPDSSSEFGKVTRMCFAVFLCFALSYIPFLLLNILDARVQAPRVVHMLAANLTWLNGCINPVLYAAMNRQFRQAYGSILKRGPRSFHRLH
Method for human GPR84 receptor: The antagonistic effect of the compound against GPR84 was determined in a CHO stably transfected cell line highly expressing the human GPR84 receptor. The stably transfected cells were cultured until 80% confluence; the cells were collected by trypsinization, counted, and then inoculated into a 384-well plate at 5 L/well. 10× compound working solution was prepared with 1× Stimulation Buffer. […] After the reaction was completed, the content of CAMP in the cells was quantified according to the method in the instructions of the cAMP assay kit (Perkin Elmer, Cat #TRF0263). The antagonistic effect (IC50 value) of the test compounds was calculated.

On to `O=c1nc(OCC23CC(CO2)C3)cc2n1CCc1cc(C#CC3CC3)ccc1-2` [Compound I-1, 2-((2-oxabicyclo[2.1.1]hexan-1-yl)methoxy)-9-(cyclopropylethynyl)-6,7-dihydro-4H-pyrimido[6,1-α]isoquinolin-4-one], for which, at human GPR84 receptor, the IC50 turned out to be 27.2 nM. In data set [1], the AUC(0-t) was determined as 54400 ng·h/mL, the concentration peaked (Cmax) at 14800 ng/mL, the Tmax came out at 30 min and the half-life was 61.8 min.
Take `O=c1nc(OC[C@@H]2COCCO2)cc2n1CCc1cc(C#CC3CC3)ccc1-2` [Control compound, reference compound]: in data set [1], the AUC(0-t) was 7280 ng·h/mL, the Cmax came out at 4120 ng/mL, the Tmax turned out to be 30 min and the half-life is 229 min.

By IC50 is commonly meant the concentration that inhibits the measured activity by half. A word on the AUC(0-t): it is the area under the concentration-time curve up to a stated or last time point. As a reminder, the Cmax is the peak of the concentration-time curve. Usually Tmax stands for the time from dosing to the highest level. In general, half-life refers to the time in which the quantity being followed falls by half. Read a low half-life as rapid decline.

The values above are taken from US20240287064A1, “TRICYCLIC COMPOUND USED AS GPR84 ANTAGONIST” (Wuhan Humanwell Innovative Drug Research and Development …, priority 2021, published 2024).
